# Data taken from ChEMBL document CHEMBL5725366, “Oxindole compounds carrying a nitrogen-bound spiro substituent and use thereof for treating vasopressin-related diseases” (2017).
# Molecular target: T1, Vasopressin V1b receptor (Homo sapiens, UniProt P47901)
# T1 sequence (P47901 whole entry): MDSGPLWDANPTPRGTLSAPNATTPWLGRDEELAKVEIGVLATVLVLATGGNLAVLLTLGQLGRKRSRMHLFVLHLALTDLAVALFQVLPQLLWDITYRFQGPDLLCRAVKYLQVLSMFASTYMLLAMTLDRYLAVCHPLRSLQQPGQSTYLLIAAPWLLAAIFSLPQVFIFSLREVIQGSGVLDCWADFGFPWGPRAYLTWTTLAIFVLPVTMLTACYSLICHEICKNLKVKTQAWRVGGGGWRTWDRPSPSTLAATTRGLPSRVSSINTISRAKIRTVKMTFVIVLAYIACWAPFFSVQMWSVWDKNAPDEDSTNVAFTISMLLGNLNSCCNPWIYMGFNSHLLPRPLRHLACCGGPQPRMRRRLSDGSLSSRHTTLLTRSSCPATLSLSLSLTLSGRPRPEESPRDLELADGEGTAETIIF
# Experiment: The nonspecific binding was determined with 1 μM AVP (Fluka 94836). All determinations were carried out as duplicate determinations. […] The liquid scintillation measurement took place in a Microbeta TriLux 12 (Wallac).
row,Compound,Ki
1,COc1ccc(S(=O)(=O)N2C(=O)C(c3ccc(F)cc3OC)(N3CC4(CN(C5CCN(C)CC5)C4)C3)C3C=C(C#N)C=CC32)nc1 (stereo not given),in the range around 5.5 nM
2,CCOc1ccc(OC)cc1[C@]1(N2CC3(CN(C4CCN(C)CC4)C3)C2)C(=O)N(S(=O)(=O)c2ccccn2)C2C=CC(C#N)=CC21 (stereo not given in full),in the range around 5.5 nM
3,CCOc1ccc(OC)c(C2(N3CC4(CN(C5CCN(C)CC5)C4)C3)C(=O)N(S(=O)(=O)c3ccc(OC)cc3)C3C=CC(C#N)=CC32)c1 (stereo not given),in the range around 5.5 nM
4,CCOc1ccc(OC)cc1[C@]1(N2CC3(CN(C4CCN(C)CC4)C3)C2)C(=O)N(S(=O)(=O)c2ccc(OC)nc2)C2C=CC(C#N)=CC21 (stereo not given in full),in the range around 5.5 nM
5,COc1ccc(S(=O)(=O)N2C(=O)C(c3ccccc3OC)(N3CC4(CN(N5CCN(C)CC5)C4)C3)C3C=C(C#N)C=CC32)nc1 (racemic),in the range around 5.5 nM
6,COc1ccc(S(=O)(=O)N2C(=O)C(c3ccccc3OC)(N3CC4(CN(C5CCN(C)CC5)C4)C3)C3C=C(C#N)C=CC32)nc1 (racemic),in the range around 5.5 nM
7,CCOc1ccc(OC)cc1C1(N2CC3(CN(N4CCN(C5COC5)CC4)C3)C2)C(=O)N(S(=O)(=O)c2ccc(OC)cn2)C2C=CC(C#N)=CC21 (racemic),in the range around 5.5 nM
8,CCOc1ccc(OC)c(C2(N3CC4(CN(C5CCN(C6COC6)CC5)C4)C3)C(=O)N(S(=O)(=O)c3ccc(OC)cn3)C3C=CC(C#N)=CC32)c1 (racemic),in the range around 5.5 nM
9,COc1ccc(S(=O)(=O)N2C(=O)C(c3cccnc3OC(C)(F)F)(N3CC4(CN(C5CCN(C)CC5)C4)C3)C3C=C(C#N)C=CC32)nc1 (racemic),in the range around 5.5 nM
10,CCOc1ncccc1C1(N2CC3(CN(N4CCN(C)CC4)C3)C2)C(=O)N(S(=O)(=O)c2ccc(OC)cn2)C2C=CC(C#N)=CC21 (racemic),in the range around 5.5 nM
11,CCOc1ccc(OC)c(C2(N3CC4(CN(C5CCN(C)CC5)C4)C3)C(=O)N(S(=O)(=O)c3ccc(OC)cn3)C3C=CC(C#N)=CC32)c1 (racemic; form 1),in the range around 5.5 nM
12,COc1ccc(S(=O)(=O)N2C(=O)C(c3cccnc3OC)(N3CC4(CN(C5CCN(C)CC5)C4)C3)C3C=C(C#N)C=CC32)nc1 (racemic; form 1),in the range around 5.5 nM
13,CCOc1ccc(OC)c(C2(N3CC4(CN(C5CCN(C)CC5)C4)C3)C(=O)N(S(=O)(=O)c3ccc(OC)cn3)C3C=CC(C#N)=CC32)c1 (racemic; form 2),in the range around 5.5 nM
14,COc1ccc(S(=O)(=O)N2C(=O)C(c3cccnc3OC)(N3CC4(CN(C5CCN(C)CC5)C4)C3)C3C=C(C#N)C=CC32)nc1 (racemic; form 2),in the range around 5.5 nM
15,"COc1ccc(S(=O)(=O)N2C(=O)C(c3ccccc3OC)(N3CC4(CN(C5CCN(C6COC6)CC5)C4)C3)C3C=C(C#N)C=CC32)nc1 (single isomer, unassigned; (+))",in the range around 5.5 nM
